Results on one substance are retold here after patent US20200384161A1, “COMPOSITE ANTI-RESTENOSIS DRUG FOR CORONARY DRUG-ELUTING STENT AND CONTROLLED RELEASE SYSTEM THEREOF” (XINXIN MEDICAL TECHNOLOGY (SHANGHAI) CO. LTD, priority 2017, published 2020).

The subject of data set [1] is primary smooth muscle cells of porcine coronary vessels. Briefly: In vitro effect of arsenic trioxide on primary porcine coronary vascular smooth muscle cells (total cell number). It is filed as cell-based. The source says:
(§1) FIGS. 1 and 2 show the effects of arsenic trioxide on primary smooth muscle cells and primary endothelial cells of porcine coronary vessels in in vitro experiments. In the figures, the vertical axis represents the total number of cells in the wells of the culture plate, and the horizontal axis represents the concentration of the arsenic trioxide solution. Each curve represents the effect of arsenic trioxide at various concentrations on apoptosis (decrease in total number of cells) at a given time. […] However, for smooth muscle cells, cells apoptosis began even at low concentrations (3 μM) from Day 2 (FIG. 1). […] Arsenic trioxide may induce apoptosis of smooth muscle cells while having poor inhibitory effect on endothelial cells or even promoting their growth.

In data set [2] the test system is VSMCs. Particulars: Li Hui et al. 2010; cited from earlier work.
Data set [3] relates to primary endothelial cells of porcine coronary vessels. Briefly: In vitro effect of arsenic trioxide on primary porcine coronary endothelial cells (total cell number). It is filed as cell-based.
Description: as §1

For data set [4] the following is noted: cited from earlier work.

With arsenic trioxide, the “concentration of arsenic trioxide at which smooth muscle cell apoptosis began” value in data set [1] (from Day 2, decrease in total number of cells (FIG. 1)) worked out at 3 µM. In addition, the “pro-apoptotic effect on smooth muscle cells” value in data set [1] (when it reaches a certain dose) is listed as “strong pro-apoptotic effect”. The “mitochondrial transmembrane potential (Δψm)” value in data set [2] is given as “could induce a decrease of mitochondrial transmembrane potential”. In addition, the “pro-apoptotic effect on endothelial cells” value in data set [3] is recorded as “not obvious”. For the same substance, in data set [3] (FIG. 2), the “proliferation of endothelial cells” value is on record as “promoting proliferation of endothelial cell to a certain extent”. In data set [3] (at a concentration of 12 μM or below (FIG. 2)), the “effect on endothelial cells” value is recorded as “little effect”. In addition, the “effect on endothelial cell growth” value in data set [3] (first to the third day upon drug action) is “stimulation of growth”. The “solubility in common solvents” value in data set [4] (common (organic) solvents such as ethanol) is “cannot be dissolved”. Further, the solubility in water entry in data set [4] (only one crystal form out of three) is on record as “slightly soluble”.
